Experimental data from patent publication US8377867B2, “Use of epinecidin-1 peptides and anti-lipopolysaccharide factor peptides for treating microbial infection” (Academia Sinica, priority 2009, dated 2013).
Bridge positions count the residues as written; N and C are the ends. Ends that are not written are not given here. Peptide text beside a SMILES is read from it.

Key:
T. vaginalis cells = experiment: EtBr/acridine orange staining of T. vaginalis cells, epifluorescence microscopy; assay type: cell-based, Trichomonas vaginalis; details: peptide 200 μg/ml co-treated with metronidazole 100 μg/ml, 16 hours
Method: T. vaginalis cells (4000 cells/well) were co-treated with metronidazole (100 μg/ml) and Epinecidin-122-42 (200 μg/ml), csSALF55-76 (200 μg/ml), or 1sSALF122-42 (200 μg/ml) for 16 hours. Both metronidazole and the peptides were dissolved in PBS. The T. vaginalis cells were then stained with cold PBS containing 1 μg/ml ethidium bromide (EtBr) and 1 μg/ml acridine orange (AO) for 10 minutes and examined by epifluorescence microscopy.

[1] = tested on: T. vaginalis cells (ATCC 50148 and T1); experiment: Scanning electron microscopy of T. vaginalis morphology; assay type: cell-based, Trichomonas vaginalis; details: ATCC 50148 and T1 cells, peptide 100 or 200 μg/ml, 1, 4 and 16 hours
Method: The effect of the three peptides on morphology of T. vaginalis cells was examined by scanning electron microscopy (SEM) and transmission electron microscopy (TEM) as follows. Cells of the ATCC 50148 and T1 strains were cultured in a 96-well cell culture plate (1×10^4 cells/well). The ATCC 50148 cells were treated with Epinecidin-122-42 (100 μg/ml), csSALF55-76 (100 μg/ml), or 1sSALF122-42 (200 μg/ml) for 1, 4, and 16 hours and the T1 cells were treated with Epinecidin-122-42 (100 μg/ml), csSALF55-76 (200 μg/ml), or 1sSALF122-42 (100 μg/ml) for the same periods. T. vaginalis cells treated with PBS were used as a control. The treated cells were then analyzed by SEM. […] A large amount of cell debris was also observed in the peptide-treated cells.

[2] = tested on: T. vaginalis cells (ATCC 50148 and T1); experiment: Transmission electron microscopy of T. vaginalis morphology; assay type: cell-based, Trichomonas vaginalis; details: ATCC 50148 and T1 cells, 16 hours, peptide 150-250 (Epinecidin 150 μg/ml, csSALF 250 mg/ml, lsSALF 150 or 200 μg/ml)
Method: The T. vaginalis cells mentioned above were also subjected to TEM analysis as described in Pan et al., DNA Cell Biol. 26:403-413 (2007). Briefly, the ATCC 50148 cells (2×10^4) were treated for 16 hours with Epinecidin-122-42 at a concentration of 150 μg/ml, csSALF55-76 at a concentration of […], and 1sSALF122-42 at a concentration of 150 μg/ml; the T1 cells (2×10^4) were treated for 16 hours with Epinecidin-122-42 at a concentration of 150 μg/ml, csSALF55-76 at a concentration of […], and 1sSALF122-42 at a concentration of 200 μg/ml. T. vaginalis cells treated with PBS were used as a control. Morphology of the treated cells was observed using a transmission electron microscope (Hitachi, H-7000, Tokyo, Japan) at 75 kV; see Pan et al., DNA Cell Biol. 26:403-413 (2007).

[3] = tested on: T. vaginalis cells (ATCC 50148 and T1); experiment: T. vaginalis cell viability, trypan blue exclusion assay; assay type: cell-based, Trichomonas vaginalis
Method: Finally, the numbers of viable T. vaginalis cells after peptide treatment were counted following the method described in Ofer et al., Int. J. Parasitol., 38:959-968 (2008). Briefly, cells of ATCC 50148 and T1 were treated with each of the three peptides mentioned above at 25, 50, 100, or 200 μg/ml for 1, 4, and 16 h (overnight), then the viability was analyzed. Cell viability was then determined by the conventional trypan blue exclusion assay. […] More than 60% T1 cells died after being treated with this peptide at a concentration of 50 μg/ml for one hour.

[4] = tested on: Propionibacterium acnes (BCRC #10723); assay type: cell-based
Method: Propionibacterium acnes (BCRC #10723) cells were cultured under the conditions recommended by Bioresource Collection and Research Centre (BCRC) in Taiwan (see bcrc.firdi,org.tw:819/bcrc/indexe.htm). Their growth inhibition by Epinecidin-122-42 was determined following the method described in Pan et al., DNA Cell Biol. 26:403-413 (2007). The minimum inhibitory concentration of this peptide against P. acnes was 200 μg/ml.

[5] = tested on: C. albicans strain BCRC #20511; assay type: cell-based, Candida albicans
Method: Cells of C. albicans strain BCRC #20511 were cultured following the protocol provided by BCRC. These cells were treated with peptide Epinecidin-122-42 at various concentrations and their growth inhibition was examined following the method disclosed in Pan et al., Int. Immunopharmacol. 7:687-700 (2007).

[6] = tested on: Propionibacterium acnes (BCRC #10723); experiment: SEM and TEM of P. acnes morphology; assay type: cell-based; details: P. acnes BCRC #10723, peptide 100 μg/ml in PBS
Method: The effect of Epinecidin-122-42 on P. acnes morphology was examined by SEM and TEM as follows. BCRC #10723 cells were seeded in a 6-well plate (1×10^4 cells per well), cultured for a sufficient period, collected by centrifugation, and re-suspended in PBS to reach an OD550 value of 1.0. The bacterial suspension was mixed with a freshly prepared PBS solution containing the peptide at a concentration of 100 μg/ml or PBS as a control.

[7] = tested on: C. albicans strain BCRC #20511; experiment: SEM and TEM of C. albicans morphology; assay type: cell-based, Candida albicans; details: C. albicans BCRC #20511, peptide 50 μg/ml
Method: The effect of Epinecidin-122-42 (50 μg/ml) on C. albicans cell morphology was analyzed by SEM and TEM following the methods mentioned above.

[8] = ATCC 50148 cells, 50 μg/ml, four hours

| Compound | Effect on cellular and nuclear membranes (EtBr/AO red color in nuclei) (T. vaginalis cells) | Cell morphology by SEM [1] | Cell morphology by TEM [2] | Cells died after treatment [3, 8] | Cells died after treatment ([3]; T1 cells, 25 μg/ml, 16 hours) | Minimum inhibitory concentration [4] [µg/mL] | Cell growth inhibition ([5]; C. albicans BCRC #20511, various concentrations) | Minimum inhibitory concentration ([5]; strain BCRC #20511) [µg/mL] | Cell morphology by SEM and TEM [6] | Cell morphology by SEM and TEM [7] | Viable cells after treatment ([3]; ATCC 50148 cells, 25 μg/ml, one hour) | Viable cells after treatment ([3]; T1 cells, 25 μg/ml, four hours) | Cells died after treatment ([3]; T1 cells, 50 μg/ml, one hour) |
| --- | --- | --- | --- | --- | --- | --- | --- | --- | --- | --- | --- | --- | --- |
| CSCC[C@@H]1NC(=O)[C@H](CCCNC(=N)N)NC(=O)CNC(=O)[C@H](CCCCN)NC(=O)[C@H](Cc2ccc(O)cc2)NC(=O)[C@H](Cc2ccc(O)cc2)NC(=O)[C@H](C(C)C)NC(=O)[C@H](CCC(N)=O)NC(=O)[C@H](Cc2ccccc2)NC(=O)[C@H](CCCNC(=N)N)NC(=O)[C@H](CCCCN)NC(=O)[C@H](CC(C)C)NC(=O)[C@H](Cc2ccc(O)cc2)NC(=O)[C@@H]2CCCN2C(=O)[C@H](CCCCN)NC(=O)[C@H](C(C)C)NC(=O)[C@H]([C@@H](C)O)NC(=O)[C@H](Cc2ccccc2)NC(=O)[C@H](CCCCN)NC(=O)[C@@H](NC(=O)[C@H](CCC(=O)O)NC(C)=O)CSSC[C@@H](C(=O)N2CCC[C@H]2C(N)=O)NC(=O)[C@H](Cc2c[nH]c3ccccc23)NC1=O [cs-SALF55-76] (Ac-ECKFTVKPYLKRFQVYYKGRMWCP-NH2; disulfide 2-23; N-terminus and C-terminus assumed) | destroyed the cellular and nuclear membranes | damaged cell membranes and distorted cell shape | significantly disrupted the intact structure | most ATCC 50148 cells died | most T1 cells died |  |  |  |  |  |  |  |  |
| CSCC[C@H](NC(=O)[C@H](CCCNC(=N)N)NC(=O)CNC(=O)[C@H](CCCCN)NC(=O)[C@H](Cc1ccc(O)cc1)NC(=O)[C@H](Cc1ccc(O)cc1)NC(=O)[C@@H](NC(=O)[C@H](CCC(N)=O)NC(=O)[C@H](Cc1ccccc1)NC(=O)[C@H](CCCNC(=N)N)NC(=O)[C@H](CCCCN)NC(=O)[C@H](CC(C)C)NC(=O)[C@H](Cc1ccc(O)cc1)NC(=O)[C@@H]1CCCN1C(=O)[C@H](CCCCN)NC(=O)[C@@H](NC(=O)[C@@H](NC(=O)[C@H](Cc1ccccc1)NC(=O)[C@H](CCCCN)NC(=O)[C@H](CS)NC(=O)[C@@H](N)CCC(=O)O)[C@@H](C)O)C(C)C)C(C)C)C(=O)N[C@@H](Cc1c[nH]c2ccccc12)C(=O)N[C@@H](CS)C(=O)N1CCC[C@H]1C(=O)O [ls-SALF55-76] (H-ECKFTVKPYLKRFQVYYKGRMWCP-OH; N-terminus and C-terminus assumed) | destroyed the cellular and nuclear membranes | damaged cell membranes and distorted cell shape | significantly disrupted the intact structure | most ATCC 50148 cells died | most T1 cells died |  |  |  |  |  |  |  |  |
| GFIFHIIKGLFHAGKMIHGLV-NH2 [Epinecidin-122-42] | destroyed the cellular and nuclear membranes | damaged cell membranes and distorted cell shape | significantly disrupted the intact structure |  |  | 200 | significantly inhibited C. albicans cell growth | 25 | destroyed the outer membranes of P. acnes cells | irregular shape and disrupted outer/intracellular membranes | No viable cells | No viable cells | More than 60% |
